Non-standard residues stand in square brackets, D forms with d. Residues, ends and D or L forms follow the SMILES beside them. No end group written: not given here. NMeF = CN[C@@H](Cc1ccccc1)C(=O)O; Cha = N[C@@H](CC1CCCCC1)C(=O)O; dCha = N[C@H](CC1CCCCC1)C(=O)O
What was measured:
[1] = molecular target: T1, C5a receptor (Homo sapiens, UniProt P21730); assay: biochemical; type: binding; settings: for IC50: read-out: IC50 exhibited by the unlabeled ligand
T1 construct: followed by a 20 μL aliquot of neutrophil membrane; endogenous in cells
T1 sequence (P21730 1-350): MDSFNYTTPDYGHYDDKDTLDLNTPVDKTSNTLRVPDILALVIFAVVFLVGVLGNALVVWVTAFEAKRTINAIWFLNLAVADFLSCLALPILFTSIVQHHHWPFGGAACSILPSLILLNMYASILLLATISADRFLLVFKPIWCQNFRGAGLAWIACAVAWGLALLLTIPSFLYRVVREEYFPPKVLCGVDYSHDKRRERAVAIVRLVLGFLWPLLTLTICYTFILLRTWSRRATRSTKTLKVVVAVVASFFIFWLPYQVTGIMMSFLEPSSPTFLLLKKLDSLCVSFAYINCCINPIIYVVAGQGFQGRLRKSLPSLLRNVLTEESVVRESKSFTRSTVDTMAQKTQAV
Method: Initially, we attempted to conduct binding studies with ^125 I radiolabeled C009: ^125 I-Tyr Phe Lys Ala Cha Cha Leu dPhe Arg, SEQ.ID:1:, wherein Cha is cyclohexylalanine, and dPhe is the D isomer of phenylalanine. This compound is a C5a agonist displaying a Ki for C5a of 8 nM. The presence of the tyrosine allowed us to radioiodinate the peptide and establish a binding assay in which both C5a (IC50=0.1 nM) and unlabeled C009 (IC50 =10 nM) inhibit the binding of ^125 I-C009 with concentration dependencies similar to those obtained from competition experiments against ^125 I-C5a.
(§1) In FIG. 1, unlabeled C013 is used to compete with ^125 I-labeled C5a. […] In FIG. 2, the C013 is ^125 I labeled. Unlabeled C5a and unlabeled C013 are each used to compete the labeled C013 from C5a binding sites on the membranes. […] In FIG. 3a, ^125 I-C5a is competed from its binding site by unlabeled C064 and unlabeled, natural C5a (as opposed to recombinant C5a, which, however, may also obviously may be used for these purposes). […] In FIG. 3b, the inverse experiment is shown, wherein ^125 I-C064 is displaced by unlabeled C064 and unlabeled nC5a.
Peptide (5 nMoles) are added to 40μL of 0.1 M sodium phosphate, pH 7.6, in a tube, followed by 2 mCi of ^125 I in 20 μL. 10 μL of a freshly made 0.5 mg/mL solution of chloramine T is then added. After 30 seconds of incubation, 10 μL of a freshly prepared 2 mg/mL solution of Na2 S2 O3 is added, the tube is vortexed, and the sample loaded onto a Vydac C4 reverse phase column. The column is developed with a TFA/acetonitrile gradient and the iodinated peptide is isolated. The material is stored at 4° C. in the elution buffer.
To 205 μL binding buffer (50 mM HEPES, pH 7.2, containing 5 mM MgCl2, 1mM CaCl2, 0.5% BSA) in a polypropylene tube is added 30,000CPM of the ^125 I peptide in 20 μL, and 5 μL of a known dilution of the test compound or diluent, followed by a 20 μL aliquot of neutrophil membrane [equivalent to 500,000 neutrophils; Rollins, T.E. et al., J. Biol Chem. 260:7157 (1985); see also U.S. Pat. No. 5,177,190, herein incorporated by reference].
The assay mixture is incubated for 2 hours at 29° C. Binding buffer (2 mL) is then added, the tube is vortexed, and the contents filtered over a Wattmann GF/C filter soaked in 0.33% polyethylenimine. An additional aliquot of binding buffer (2 mL) is added to the tube to rinse the tube, and is then used to wash the filter. The filters are removed from the apparatus and counted. Non-specific backgrounds are determined by performing assays in the presence of either 10 nM C5a, or 1 μM unlabeled peptide. Compounds which inhibit the binding of the labeled peptide are considered to be potential active compounds.

[2] = molecular target: T1, C5a receptor; assay: Competition binding against 125I-labeled intact C5a on human neutrophil (PMN) membranes
From the text: The affinity of these peptides is shown, for example, by radiolabeling intact C5a, and using the unlabeled peptide to compete the labeled C5a from C5a receptor binding sites on cellular membranes. Preparations of polymorphonuclear leukocytes (PMN's) are known to express the C5a receptor, (inhibition of the chemotactic response to C5a of this type of cell is one desirable utility for compounds identified by the instant assay). One method for preparing these membranes is described by Rollins, T. E. et al., [J. Biol. Chem. 264:520-526 (1988); see also U.S. Pat. No. 5,177,190, herein incorporated by reference as a method for isolating and purifying C5a receptor]. Briefly, this involves isolating PMN's in large quantity, disrupting these cells and obtaining the membrane fraction by centrifugation. Protein assay of the membrane preparation allows for standardization of the amount of protein added in any set of membrane binding experiments.
as §1
Hexapeptides within this class differing only at position X have similar affinities for the C5a receptor. As measured in competition binding experiments against ^125 I-C5a on human neutrophil membranes their IC50 's varied by only a factor of 3, from 25 to 80 nM (Table II):
^2 Binding experiments were carried out with human neutrophil
Binding is initiated by an addition of 20 μL of PMN membrane (typically 0.5 μg of protein) to each tube. After incubation for 90 min. at room temperature 2 ml of 0.05 M HEPES, pH 7.2, containing 0.5% BSA are added to the tube, the contents vortexed and filtered over a Whatman GF/C filter which has been soaked in 0.3% polyethylenimine. An additional 2 ml of buffer are added to the tube and used to wash the filter. All of the test samples are dissolved in DMSO, another water miscible organic solvent, or in an aqueous solvent. Non-specific background was determined by inclusion of a 100-fold excess of unlabeled C5a.
The percent inhibition is calculated according to the following formula: [formula]
Iodination of C5a was carded out with the use of chloramine T. (Rollins, T.E., and Springer, M.S. (1985) J. Biol. Chem. 260, 7157-7160). […] Concentrations of C5a were determined by amino acid analysis and by RIA (Amersham Corp.). Membranes were prepared from human PMN as described by Rollins, T.E., Sciliano, S and Springer, M.S., J. Biol Chem 264 520-526 (1988).

[3] = test system: human neutrophils; assay: Degranulation, myeloperoxidase (MPO) release from human neutrophils (agonism); type: cell-based
Method: (§2) FIG. 5A and 5B. Degranulation and Ca^2+ responses to the hexapeptides. […] The ED50 's for the degranulation are: C5a, 0.5 nM; C028, 0.2 μM; C026, 1 μM. C5a, maximally, released 57% of the total cellular content of MPO. The ability of these molecules to elicite a Ca^2+ -flux is shown in B. The concentrations used for C028 (10 μM), C026 (10 μM), C061 (100 μM) are those which produce a maximal flux. A saturating concentration was also used for C5a (1 nM).
(§3) This assay was performed on human neutrophils as previously reported and it is a measure of C5a or peptide induced exocytosis (Rollins, T. E. and Springer, M. S. (1985) J. Biol. Chem. 260, 7157-7160).
The functional properties of two of the peptides, C026, and C028, were originally described by Mollison et. al (Mollison, K. W., Krause, R. A., Fey, T. A., Miller, L., Wiedeman, P. e., Kawai, M., Lane, B., Luly, J. R. and Carter, G. W. (1992) FASEB J. 6, A2058). […] We have reinvestigated the degranulating activities of these peptides as measured by the release of myeloperoxidase (MPO) from human neutrophils. […] The EC50 /IC50 (degranulation/binding) for C028 is 8, the same as that measured for C5a (Table II, FIG. 5A). […] However, the difference in activity between C026 and C028 is significant and reproducible. Since the structural difference between the two is the substitution of an aromatic for an aliphatic residue (Phe for Cha) we chose to make additional changes at position 5 which further increased aromaticity. […] To further examine whether the differences in activity between the peptides reflects the increased aromaticity we synthesized a molecule with Leu, an aliphatic amino acid, at position 5 (C068, Table II).

[4] = test system: human neutrophils; assay: Ligand induced Ca2+ flux (Indo-1 fluorescence); type: cell-based; settings: maximal effects, peptide 10-100 μM vs 1 nM C5a, FIG. 5B
Method: as §2
(§4) Ligand induced Ca^2+ fluxes were measured by following the change in Indo-1 induced fluorescence on a FACS analyzer as previously described (Van Riper, G., Siciliano, S. J., Fischer, P. A., Meurer, R., Springer, M. S. and Rosen, H. (1993) J. Exp. Med. 177, 851-856.).
FIG. 5B compares the maximal effects of each peptide (10-100 μM) with the response induced by C5a (1 nM).

[5] = molecular target: T1, C5a receptor; assay: Agonist activity over all C5a induced responses (chemotaxis, MPO release, calcium flux, GTPase activity, GTPγ-S binding); type: cell-based; settings: C089 tested up to and including 100 μM
Method: The EC50 measures the concentration of compound at which a 50% maximal stimulation of a given biological response induced by C5a is achieved (chemotaxis, MPO release, calcium flux, GTPase activity or GTPγ-S binding), and the IC50 is the concentration at which 50% maximal inhibition of C5a binding is achieved.
as §3, §4
This assay is a modification of the procedure described by Sims et. al. (Sims, T. J., Geissler, F. T. and Page, R. C. (1985) J. lmmunol. Meth. 78, 279-291 ). Chemotaxis was assayed in a 48 well Neuro Probe chamber (Neuro Probe, Bethesda, MD) using ^51 Cr-labelled cells. […] After preforming a gradient for 30 minutes at 37° C., 2×10^5 labelled cells were added to the upper chamber and allowed to migrate at 37° C. for one hour. The upper two polycarbonate filters were then discarded and the formed wells cut from the nitrocellulose membrane. The radioactivity present in these filters is a measure of the number of cells that migrated through both polycarbonate filters.
The method of Kupper et al. (Kupper, R. W., Dewald, B., Jakobs, K. H., Baggiolini, M. and Gierschik, P. (1992) Biochem. J. 282, 429-434) was adapted for use in microtiter plates. Neutrophil membranes were suspended in 50 mM triethanolamine-HCl, 5 mM MES, pH 7.3, containing 1 mM EDTA, 5 mM MgCl2, 143 mM NaCl, 0.16 % BSA, 1 mM ouabain, 1 mM AMP-PNP, 0.5 mM ATP, 2.5 U/mL creatine phosphokinase,. 10 mM creatine phosphate, 0.1 mM PMSF and 10 ng/mL each of leupeptin, aprotinin and chymostatin. 50 μL of membranes containing 1-5 μg protein were added to 50 μL of the same buffer containing the test agent and 0.25 μM [γ-^32 P]-GTP (2,000 cpm/pmol) in the wells of a U-shaped microtiter plate. After incubation for 15-30 rain at 29° C., 100 μL of a 10% (w/v) charcoal suspension in 100 mM H3 PO4 was added and plates were centrifuged at 2000 rpm for 5 min. 100 μL of the supernatant was transferred to an Optiplate microtiter plate and 100 μL of Microscint-40 scintillation cocktail was added. Plates were counted in a Packard TopCount microtiter plate counter.

[6] = labeled ligand 125I-C5a, read-out: IC50 exhibited by the unlabeled ligand

CC(C)C[C@H](NC(=O)CNC(=O)[C@H](CC1CCCCC1)NC(=O)[C@H](C)NC(=O)[C@H](CCCCN)NC(=O)[C@H](Cc1ccccc1)NC(=O)[C@@H](N)Cc1ccc(O)cc1)C(=O)N[C@H](Cc1ccccc1)C(=O)N[C@@H](CCCNC(=N)N)C(=O)O [C013, Tyr Phe Lys Ala Cha Gly Leu dPhe Arg] (H-YFKA[Cha]GL[dF]R-OH)
binding affinity relative to 125I-C009 [1]: about 30 fold
IC50 ([1]; labeled ligand 125I-C013): 1 nM
IC50 [2, 6]: 14 nM

CN[C@@H](Cc1ccccc1)C(=O)N[C@@H](CCCCN)C(=O)N1CCC[C@H]1C(=O)N[C@H](CC1CCCCC1)C(=O)N[C@@H](CC(C)C)C(=O)N[C@H](CCCNC(=N)N)C(=O)O [C068] (H-[NMeF]KP[dCha]L[dR]-OH)
degranulating activity in words ([3]; FIG. 5A): full agonist, as measured both by maximal release and ED50 /IC50 ratio
Ca2+ response in words [4]: full agonist in this assay
IC50 ([2]; Table II, human neutrophil membranes, competition against 125I-C5a, read-out: Binding IC50): 60 nM
agonist activity in words, all responses [5]: almost complete agonists of all of these responses

CSCC[C@H](NC=O)C(=O)N[C@@H](CC(C)C)C(=O)N[C@@H](Cc1ccccc1)C(=O)O [fMLP, N-formyl-methionyl-leucyl-phenylalanine, reference compound]
effect on binding of C5a COOH-terminal peptides in words ([1]; 125I-C009 for fMLP and IL-8, COOH-terminal peptides for L-584,020): neither

IL-8: chemokine IL-8
release of total cellular MPO ([3]; 0.4 nM C5a or 8 nM IL-8, cells without C089): 19%

Tyr Phe Lys Pro dCha Cha dArg (YFKP[dCha][Cha][dR]) [C064, name also used for the 125I-Tyr peptide]
non-specific binding of the labeled peptide [1]: low non-specific binding
IC50 ([1]; labeled ligand 125I-C064): 1.5 nM
IC50 [2, 6]: 8 nM

^125 I-Tyr Phe Lys Ala Cha Cha Leu dPhe Arg [125I-C009]
non-specific binding of the labeled peptide [1]: high non-specific binding

B1: 125I-C5a: C5a iodinated with chloramine T (100-200 mCi/mg) (protein, UniProt P01031 678-751, looked up)
C5a anaphylatoxin: TLQKKIEEIAAKYKHSVVKKCCYDGACVNNDETCEQRAARISLGPRCIKAFTECCVVASQLRANISHKDMQLGR
modifications: C5a anaphylatoxin 125I label
affinity of radioiodinated C5a in words ([2]; 100-200 mCi/mg): same affinity for the receptor as did the nonderivatized protein

— patent US5614370A, “Assay to identify human C5a antagonists and agonists” (Merck & Co., Inc., priority 1994, dated 1997)
